In the supplement of paper PMC10331698:
± gives the standard deviation of the averaged measurements.

Experiments:
Experiment in all cases: level (log10 ratio to DMSO vehicle control); higher = higher biomarker level / cell amount than vehicle control
Settings in all cases: in DMSO
[1] = compound: FC(F)(F)C(F)(F)C(F)(F)C(F)(F)C(F)(F)CCI [1-Iodo-1H,1H,2H,2H-perfluoroheptane]
Method: (§1)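 BioMAP Diversity Plus panel of 12 human primary cell co-culture systems (3C, 4H, LPS, SAg, BT, BF4T, BE3C, CASM3C, HDF3CGF, KF3CT, MyoF, Mphg). Compounds were added 1 h before stimulation and left for 24 h (MyoF 48 h; BT 72 h for soluble read-outs or 6 d for IgG). Biomarkers were read by ELISA, cytotoxicity by SRB, PBMC viability and proliferation by Alamar Blue. Each well value was divided by the mean of 8 DMSO control wells on the same plate and log10 transformed; duplicate blinded samples were tested at 4 concentrations.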

[2] = compound: NC(=O)C(F)(F)C(F)(F)C(F)(F)F [Heptafluorobutyramide]
Method: as §1

[3] = compound: O=C(O)C(F)(F)C(F)(F)C(F)(F)OC(F)(C(F)(F)F)C(F)(F)F [Perfluoro-4-isopropoxybutanoic acid]
Method: as §1

[4] = compound: C=C(C)C(=O)OCCC(F)(F)C(F)(F)C(F)(F)C(F)(F)C(F)(C(F)(F)F)C(F)(F)F [(Perfluoro-5-methylhexyl)ethyl 2-methylprop-2-enoate]
Method: as §1

[5] = compound: O=S(=O)(O)C(F)(F)C(F)(F)C(F)(F)C(F)(F)C(F)(F)C(F)(F)F [Perfluorohexanesulfonic acid]
Method: as §1

[6] = compound: O=C(O)C(F)(F)C(F)(F)C(F)(F)C(F)(F)F [Perfluoropentanoic acid]
Method: as §1

[7] = compound: COC(=O)CCC(F)(F)C(F)(F)C(F)(F)C(F)(F)F [Methyl 2H,2H,3H,3H-perfluoroheptanoate]
Method: as §1

Row | Test System | level (log10) ([1]; 6700 nM) | level (log10) ([1]; 20000 nM) | level (log10) ([1]; 60000 nM) | level (log10) ([2]; 6700 nM) | level (log10) ([2]; 20000 nM) | level (log10) ([2]; 60000 nM) | level (log10) ([3]; 6700 nM) | level (log10) ([3]; 20000 nM) | level (log10) ([3]; 60000 nM) | level (log10) ([4]; 6700 nM) | level (log10) ([4]; 20000 nM) | level (log10) ([5]; 6700 nM) | level (log10) ([5]; 20000 nM) | level (log10) ([5]; 60000 nM) | level (log10) ([6]; 6700 nM) | level (log10) ([6]; 20000 nM) | level (log10) ([6]; 60000 nM) | level (log10) ([7]; 6700 nM) | level (log10) ([7]; 20000 nM) | level (log10) ([7]; 60000 nM)
1 | MyoF:Decorin | -0.012 ± 0.0028 | -0.022 ± 0.023 | -0.007 ± 0.034 | -0.029 ± 0.057 | 0.02 ± 0.081 | 0.0065 ± 0.049 | 0.008 ± 0.0057 | 0.023 ± 0.027 | 0.065 ± 0.061 | -0.006 ± 0.037 | 0.008 ± 0.052 | -0.0305 ± 0.046 | -0.0105 ± 0.00071 | -0.0095 ± 0.0064 | -0.015 ± 0.0028 | -0.0125 ± 0.0092 | 0.005 ± 0.048 | -0.001 ± 0.013 | 0.015 ± 0.0028 | 0.0175 ± 0.052
2 | HDF3CGF:CXCL9/MIG | -0.0255 ± 0.044 | -0.0445 ± 0.0092 | -0.149 ± 0.11 | 0.0055 ± 0.026 | 0.0035 ± 0.019 | -0.0225 ± 0.025 | -0.0125 ± 0.023 | 0.0185 ± 0.005 | 0.009 ± 0.024 | 0.0135 ± 0.00071 | 0.0095 ± 0.011 | -0.0195 ± 0.0021 | -0.017 | 0.005 ± 0.042 | -0.004 ± 0.0057 | -0.004 ± 0.018 | -0.003 ± 0.02 | 0.014 | 0.0255 ± 0.021 | -0.0225 ± 0.013
3 | HDF3CGF:MMP-1 | 0.0565 ± 0.013 | 0.078 ± 0.0085 | 0.089 ± 0.037 | 0.004 ± 0.011 | -0.01 | 0.001 ± 0.0057 | -0.0055 ± 0.0035 | 0 ± 0.0028 | -0.0015 ± 0.011 | 0.002 ± 0.0085 | 0.008 ± 0.018 | 0.001 ± 0.025 | -0.0095 ± 0.03 | 0.01 ± 0.028 | -0.0165 ± 0.013 | -0.0215 ± 0.0021 | -0.0215 ± 0.011 | 0 ± 0.011 | -0.003 ± 0.018 | -0.004 ± 0.025
4 | HDF3CGF:SRB | 0.0335 ± 0.036 | 0.0065 ± 0.023 | -0.052 ± 0.033 | 0.018 ± 0.0014 | 0.0035 ± 0.025 | 0.0075 ± 0.03 | -0.0125 ± 0.025 | 0.0115 ± 0.037 | -0.0055 ± 0.015 | 0.0055 ± 0.0092 | 0.008 ± 0.0028 | 0.017 ± 0.011 | 0.0145 ± 0.022 | -0.009 ± 0.0085 | 0.012 ± 0.011 | 0.01 ± 0.018 | 0.0125 ± 0.03 | 0.0005 ± 0.005 | -0.001 ± 0.057 | 0.0735 ± 0.091
5 | BE3C:SRB | -0.003 ± 0.0057 | -0.0105 ± 0.0021 | -0.0085 ± 0.012 | -0.0025 ± 0.0035 | 0.0005 ± 0.00071 | -0.002 ± 0.0042 | -0.0035 ± 0.00071 | -0.0095 ± 0.00071 | 0.001 ± 0.0085 | 0.009 ± 0.0099 | 0.0065 ± 0.016 | -0.0035 ± 0.022 | -0.013 ± 0.0085 | -0.017 ± 0.011 | 0.002 ± 0.0085 | -0.0035 ± 0.005 | 0 ± 0.016 | -0.004 ± 0.0028 | -0.0015 ± 0.0021 | 0.002
6 | KF3CT:CD54/ICAM-1 | 0.0015 ± 0.019 | -0.0045 ± 0.00071 | -0.0165 ± 0.0021 | -0.012 ± 0.014 | -0.002 ± 0.0028 | 0.0015 ± 0.012 | 0.001 ± 0.016 | -0.035 ± 0.0071 | -0.0495 ± 0.016 | -0.01 ± 0.0042 | -0.0175 ± 0.0021 | -0.0165 ± 0.005 | -0.0165 ± 0.0078 | -0.013 ± 0.014 | 0.004 ± 0.0057 | 0.001 ± 0.013 | 0.016 ± 0.028 | 0.005 ± 0.0028 | 0.021 ± 0.024 | -0.01 ± 0.04
7 | CASM3C:CD141/Thrombomodulin | -0.011 ± 0.0085 | 0.0015 ± 0.012 | 0.0845 ± 0.012 | 0.017 ± 0.033 | 0.0065 ± 0.033 | -0.016 ± 0.041 | 0 ± 0.018 | -0.005 ± 0.02 | 0.0135 ± 0.029 | -0.0185 ± 0.069 | 0.0165 ± 0.098 | 0.0005 ± 0.0064 | 0.0015 ± 0.005 | -0.0055 ± 0.022 | -0.0065 ± 0.016 | -0.0135 ± 0.035 | 0.0105 ± 0.005 | -0.042 ± 0.024 | -0.017 ± 0.048 | 0.003 ± 0.017
8 | HDF3CGF:TIMP-1 | -0.001 ± 0.0042 | 0.0055 ± 0.005 | -0.024 ± 0.0085 | 0.002 ± 0.017 | -0.017 ± 0.051 | -0.001 ± 0.0042 | -0.023 ± 0.048 | -0.0155 ± 0.043 | 0.018 ± 0.11 | -0.035 ± 0.0071 | -0.0345 ± 0.0078 | 0.0145 ± 0.016 | 0.049 ± 0.021 | 0.094 ± 0.038 | -0.0195 ± 0.0021 | -0.032 ± 0.014 | 0.0115 ± 0.011 | -0.0015 ± 0.022 | 0.008 ± 0.014 | 0.014 ± 0.011
9 | CASM3C:Serum Amyloid A | 0.011 ± 0.023 | 0.003 ± 0.0014 | -0.0195 ± 0.026 | -0.0555 ± 0.023 | -0.0445 ± 0.042 | -0.0065 ± 0.096 | -0.0025 ± 0.0078 | -0.0295 ± 0.013 | 0.0165 ± 0.081 | -0.0325 ± 0.021 | 0.025 ± 0.0085 | -0.0215 ± 0.057 | -0.0085 ± 0.015 | 0.007 ± 0.021 | -0.003 ± 0.0071 | -0.013 ± 0.011 | -0.0045 ± 0.033 | 0.009 | -0.0065 ± 0.013 | -0.0005 ± 0.022
10 | lMphg:SRB | 0.006 ± 0.013 | -0.011 ± 0.0014 | -0.001 ± 0.0057 | -0.015 ± 0.0099 | -0.0025 ± 0.005 | 0 ± 0.02 | -0.003 ± 0.0071 | -0.0035 ± 0.005 | -0.009 ± 0.023 | -0.0035 ± 0.0035 | -0.0105 ± 0.0021 | -0.016 ± 0.037 | -0.0045 ± 0.0078 | -0.0265 ± 0.029 | -0.0125 ± 0.0035 | -0.0065 ± 0.0092 | 0.01 ± 0.018 | -0.008 ± 0.02 | -0.016 ± 0.0057 | -0.0095 ± 0.023
11 | HDF3CGF:TIMP-2 | 0.0155 ± 0.023 | 0.004 ± 0.033 | -0.019 ± 0.035 | -0.0195 ± 0.025 | -0.0065 ± 0.033 | -0.009 ± 0.071 | -0.008 ± 0.017 | 0.0335 ± 0.022 | -0.004 ± 0.023 | 0.0075 ± 0.026 | -0.0295 ± 0.019 | -0.0055 ± 0.015 | 0.0095 ± 0.0035 | -0.02 ± 0.0099 | 0.009 ± 0.024 | -0.0155 ± 0.018 | -0.0025 ± 0.011 | 0.0295 ± 0.019 | -0.0065 ± 0.03 | 0.0195 ± 0.043
12 | lMphg:CXCL8/IL-8 | 0.005 ± 0.0057 | -0.01 ± 0.0099 | 0.0495 ± 0.025 | 0.0095 ± 0.035 | -0.0195 ± 0.0064 | 0.032 ± 0.038 | 0.02 ± 0.042 | 0.066 ± 0.038 | 0.164 ± 0.0035 | -0.0035 ± 0.011 | 0.006 ± 0.0028 | 0.029 ± 0.11 | 0.052 ± 0.088 | 0.169 ± 0.18 | 0.005 ± 0.031 | -0.0275 ± 0.013 | 0.044 ± 0.064 | -0.0045 ± 0.018 | -0.0025 ± 0.0064 | -0.0005 ± 0.018
13 | HDF3CGF:Proliferation 72hr | -0.058 ± 0.0099 | -0.257 ± 0.04 | -0.832 ± 0.16 | 0.0015 ± 0.088 | 0.016 ± 0.041 | -0.0205 ± 0.053 | 0.0305 ± 0.037 | 0.04 ± 0.055 | 0.051 ± 0.011 | -0.015 ± 0.0028 | -0.014 | 0.054 ± 0.035 | 0.072 ± 0.051 | 0.107 ± 0.024 | 0.002 ± 0.041 | 0.0505 ± 0.11 | 0.022 ± 0.03 | 0.011 ± 0.0057 | 0.013 ± 0.0057 | 0.0705 ± 0.044
